Laboratory results published in patent publication US20230085307A1, “PYRIDAZINONE COMPOUND AND HERBICIDE” (NISSAN CHEMICAL CORPORATION, priority 2019, published 2023).

Tests used:
windgrass = assay: Test Example 4: herbicidal effect by soil treatment (Table 19, symbol L); assay type: in vivo, windgrass (Apera spica-venti); details: amount of applied herbicide 320 g/ha
Summary of the method: (§1)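 Herbicidal effect was rated 3 weeks after treatment, using the scoring criteria of an earlier test. The compound, formulated as an emulsion and diluted in water to a set herbicide amount, had been sprayed uniformly on soil over freshly sown seeds. Growth took place in a greenhouse at 25° C. to 30° C.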

blackgrass [1] = assay: Test Example 4: herbicidal effect by soil treatment (Table 19, symbol J); assay type: in vivo, blackgrass (Alopecurus myosuroides); details: amount of applied herbicide 320 g/ha
Summary of the method: as §1

late watergrass = assay: Test Example 1: herbicidal activity, application before weed generation under submerged conditions (Table 16, symbol A); assay type: in vivo, late watergrass (Echinochloa oryzicola); details: amount of applied herbicide 320 g/ha
Summary of the method: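 Emulsion formulation, water-diluted to set dose, was put onto the flooded surface (4 cm depth, alluvial soil) the same day weeds were sown and 2.5-leaf rice transplanted. After 3 weeks at 25-30 °C under glass, each species was rated 0 (≤5% kill) to 5 (≥90% kill).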

southern crabgrass [2] = assay: Test Example 4: herbicidal effect by soil treatment (Table 19, symbol F); assay type: in vivo, southern crabgrass (Digitaria ciliaris); details: amount of applied herbicide 320 g/ha
Summary of the method: as §1

redroot pigweed [3] = assay: Test Example 4: herbicidal effect by soil treatment (Table 19, symbol N); assay type: in vivo, redroot pigweed (Amaranthus retroflexus); details: amount of applied herbicide 320 g/ha
Summary of the method: as §1

southern crabgrass [4] = assay: Test Example 5: herbicidal effect by foliage application, plastic box (Table 20, symbol F); assay type: in vivo, southern crabgrass (Digitaria ciliaris); details: foliage application, 320 g/ha, three weeks after application
Summary of the method: (§2)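 Foliar spray test: emulsion formulation diluted in water to a set application rate, sprayed onto 14-day-old plants raised in diluvial soil at 25° C to 30° C under glass. Both herbicidal effect and crop effect rated visually three weeks later.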

Chinese sprangletop = assay: Test Example 3: herbicidal effect by foliage application, Wagner pot (Table 18, symbol D); assay type: in vivo, chinese sprangletop (Leptochloa chinensis); details: for herbicidal effect on Chinese sprangletop (D): 320 g/ha
Summary of the method: (§3)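 Plants were sown in alluvial soil held under 0.1–0.5 cm standing water and grown 14 days in a greenhouse at 25–30 °C. An emulsifiable formulation, water-diluted to the set dose, was then sprayed onto the foliage, and effects were scored three weeks later using previously defined criteria.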

barnyard grass [5] = assay: Test Example 3: herbicidal effect by foliage application, Wagner pot (Table 18, symbol H); assay type: in vivo, barnyard grass (Echinochloa crus-galli); details: for herbicidal effect on barnyard grass (H): 320 g/ha
Summary of the method: as §3

green foxtail [6] = assay: Test Example 4: herbicidal effect by soil treatment (Table 19, symbol G); assay type: in vivo, green foxtail (Setaria viridis); details: amount of applied herbicide 320 g/ha
Summary of the method: as §1

barnyard grass [7] = assay: Test Example 4: herbicidal effect by soil treatment (Table 19, symbol H); assay type: in vivo, barnyard grass (Echinochloa crus-galli); details: amount of applied herbicide 320 g/ha
Summary of the method: as §1

persian speedwell = assay: Test Example 5: herbicidal effect by foliage application, plastic box (Table 20, symbol R); assay type: in vivo, Persian speedwell (Veronica persica); details: foliage application, 320 g/ha, three weeks after application
Summary of the method: as §2

oval-leafed pondweed = assay: Test Example 2: herbicidal activity, application during weed generation under submerged conditions (Table 17, symbol C); assay type: in vivo, oval-leafed pondweed (Monochoria vaginalis); details: AAH 320 g/ha; application during weed generation, submerged conditions
Summary of the method: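 Steps: fill Wagner pots with alluvial soil; add water to give 4 cm depth; sow the species mixed; grow under glass at 25–30° C.; at 1–2 leaves apply water-diluted emulsion formulation to the water surface at a fixed herbicide amount; score after 3 weeks.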

blackgrass [8] = assay: Test Example 5: herbicidal effect by foliage application, plastic box (Table 20, symbol J); assay type: in vivo, blackgrass (Alopecurus myosuroides); details: foliage application, 320 g/ha, three weeks after application
Summary of the method: as §2

false cleavers = assay: Test Example 5: herbicidal effect by foliage application, plastic box (Table 20, symbol Q); assay type: in vivo, false cleavers (Galium spurium); details: foliage application, 320 g/ha, three weeks after application
Summary of the method: as §2

chickweed = assay: Test Example 4: herbicidal effect by soil treatment (Table 19, symbol P); assay type: in vivo, common chickweed (Stellaria media); details: amount of applied herbicide 320 g/ha
Summary of the method: as §1

redroot pigweed [9] = assay: Test Example 5: herbicidal effect by foliage application, plastic box (Table 20, symbol N); assay type: in vivo, redroot pigweed (Amaranthus retroflexus); details: foliage application, 320 g/ha, three weeks after application
Summary of the method: as §2

green foxtail [10] = assay: Test Example 5: herbicidal effect by foliage application, plastic box (Table 20, symbol G); assay type: in vivo, green foxtail (Setaria viridis); details: foliage application, 320 g/ha, three weeks after application
Summary of the method: as §2

[11] = amount of applied herbicide 320 g/ha

Row | SMILES | Herbicidal effect, A: late watergrass (late watergrass) | F: southern crabgrass, herbicidal effect grade (southern crabgrass [4]) | R: persian speedwell, herbicidal effect grade (persian speedwell) | herbicidal effect rating, C: oval-leafed pondweed (oval-leafed pondweed) | J: blackgrass, herbicidal effect grade (blackgrass [8]) | Q: false cleavers, herbicidal effect grade (false cleavers) | N: redroot pigweed, herbicidal effect grade (redroot pigweed [9]) | G: green foxtail, herbicidal effect grade (green foxtail [10]) | L: windgrass, herbicidal effect grade (windgrass) | J: blackgrass, herbicidal effect grade (blackgrass [1]) | F: southern crabgrass, herbicidal effect grade (southern crabgrass [2]) | N: redroot pigweed, herbicidal effect grade (redroot pigweed [3]) | herbicidal effect on Chinese sprangletop (D) (Chinese sprangletop) | herbicidal effect on barnyard grass (H) (barnyard grass [5]) | H: barnyard grass, herbicidal effect grade (barnyard grass [7]) | P: chickweed, herbicidal effect grade (chickweed) | G: green foxtail, herbicidal effect grade (green foxtail [6]) | other results
1 | CCCC(=O)Oc1c(C)nn(C)c(=O)c1-c1c(-c2ccc(F)cc2)sc2cc(F)ccc12 [3-002] | 5 (Herbicidal rate of 90% or more (almost completely withered)) | 4 (Herbicidal rate of 70% or more and less than 90%) | 5 (Herbicidal rate of 90% or more (almost completely withered)) | 4 (Herbicidal rate of 70% or more and less than 90%) | 4 (Herbicidal rate of 70% or more and less than 90%) | 5 (Herbicidal rate of 90% or more (almost completely withered)) | 5 (Herbicidal rate of 90% or more (almost completely withered)) | 4 (Herbicidal rate of 70% or more and less than 90%) | – | – | – | – | – | – | – | – | – | herbicidal effect, L: windgrass (windgrass): 3 (Herbicidal rate of 40% or more and less than 70%); herbicidal effect, J: blackgrass (blackgrass [1]): 0 (Herbicidal rate of 5% or less (almost no effect)); herbicidal effect, F: southern crabgrass (southern crabgrass [2]): 0 (Herbicidal rate of 5% or less (almost no effect)); herbicidal effect, N: redroot pigweed (redroot pigweed [3]): 5 (Herbicidal rate of 90% or more (almost completely withered)); herbicidal effect on D: Chinese sprangletop (Chinese sprangletop; [11]): 0 (Herbicidal rate of 5% or less (almost no effect)); herbicidal effect on H: barnyard grass (barnyard grass [5]; [11]): 5 (Herbicidal rate of 90% or more (almost completely withered)); herbicidal effect, G: green foxtail (green foxtail [6]): 0 (Herbicidal rate of 5% or less (almost no effect)); herbicidal effect, H: barnyard grass (barnyard grass [7]): 0 (Herbicidal rate of 5% or less (almost no effect)); herbicidal effect, P: chickweed (chickweed): 3 (Herbicidal rate of 40% or more and less than 70%)
2 | CCCC(=O)Oc1c(C)nn(C)c(=O)c1-c1c(-c2ccccc2)sc2cc(OC)ccc12 [3-062] | 3 (Herbicidal rate of 40% or more and less than 70%) | 0 (Herbicidal rate of 5% or less (almost no effect)) | 3 (Herbicidal rate of 40% or more and less than 70%) | 3 (Herbicidal rate of 40% or more and less than 70%) | 0 (Herbicidal rate of 5% or less (almost no effect)) | 4 (Herbicidal rate of 70% or more and less than 90%) | 2 (Herbicidal rate of 20% or more and less than 40%) | 0 (Herbicidal rate of 5% or less (almost no effect)) | 0 (Herbicidal rate of 5% or less (almost no effect)) | 0 (Herbicidal rate of 5% or less (almost no effect)) | 0 (Herbicidal rate of 5% or less (almost no effect)) | 0 (Herbicidal rate of 5% or less (almost no effect)) | 1 (Herbicidal rate of 5% or more and less than 20%) | 2 (Herbicidal rate of 20% or more and less than 40%) | 0 (Herbicidal rate of 5% or less (almost no effect)) | 4 (Herbicidal rate of 70% or more and less than 90%) | – | –
3 | CCCC(=O)Oc1c(C)nn(C)c(=O)c1-c1c(-c2ccc(F)cc2OC)sc2cc(OC)ccc12 [3-077] | 5 (Herbicidal rate of 90% or more (almost completely withered)) | 0 (Herbicidal rate of 5% or less (almost no effect)) | 3 (Herbicidal rate of 40% or more and less than 70%) | 4 (Herbicidal rate of 70% or more and less than 90%) | 4 (Herbicidal rate of 70% or more and less than 90%) | 3 (Herbicidal rate of 40% or more and less than 70%) | 3 (Herbicidal rate of 40% or more and less than 70%) | 5 (Herbicidal rate of 90% or more (almost completely withered)) | 3 (Herbicidal rate of 40% or more and less than 70%) | 3 (Herbicidal rate of 40% or more and less than 70%) | 0 (Herbicidal rate of 5% or less (almost no effect)) | 5 (Herbicidal rate of 90% or more (almost completely withered)) | 1 (Herbicidal rate of 5% or more and less than 20%) | 5 (Herbicidal rate of 90% or more (almost completely withered)) | 3 (Herbicidal rate of 40% or more and less than 70%) | 4 (Herbicidal rate of 70% or more and less than 90%) | – | –
4 | CCCC(=O)Oc1c(C)nn(C)c(=O)c1-c1c(-c2ccc(OC)cc2)sc2cc(OCC)ccc12 [3-092] | 0 (Herbicidal rate of 5% or less (almost no effect)) | 0 (Herbicidal rate of 5% or less (almost no effect)) | 5 (Herbicidal rate of 90% or more (almost completely withered)) | 3 (Herbicidal rate of 40% or more and less than 70%) | 0 (Herbicidal rate of 5% or less (almost no effect)) | 4 (Herbicidal rate of 70% or more and less than 90%) | 5 (Herbicidal rate of 90% or more (almost completely withered)) | 0 (Herbicidal rate of 5% or less (almost no effect)) | 0 (Herbicidal rate of 5% or less (almost no effect)) | 0 (Herbicidal rate of 5% or less (almost no effect)) | 3 (Herbicidal rate of 40% or more and less than 70%) | 3 (Herbicidal rate of 40% or more and less than 70%) | – | 0 (Herbicidal rate of 5% or less (almost no effect)) | 0 (Herbicidal rate of 5% or less (almost no effect)) | 5 (Herbicidal rate of 90% or more (almost completely withered)) | 0 (Herbicidal rate of 5% or less (almost no effect)) | –
5 | CCCC(=O)Oc1c(C)nn(C)c(=O)c1-c1c(-c2ccc3c(c2)OCCO3)oc2ccc(C)cc12 [9-013] | 3 (Herbicidal rate of 40% or more and less than 70%) | – | – | 5 (Herbicidal rate of 90% or more (almost completely withered)) | – | – | – | – | 0 (Herbicidal rate of 5% or less (almost no effect)) | 0 (Herbicidal rate of 5% or less (almost no effect)) | 4 (Herbicidal rate of 70% or more and less than 90%) | 3 (Herbicidal rate of 40% or more and less than 70%) | – | – | 1 (Herbicidal rate of 5% or more and less than 20%) | 0 (Herbicidal rate of 5% or less (almost no effect)) | 3 (Herbicidal rate of 40% or more and less than 70%) | herbicidal effect on southern crabgrass (F) (southern crabgrass [4]): 0 (Herbicidal rate of 5% or less (almost no effect)); Herbicidal effect on D (Chinese sprangletop), foliage application (Chinese sprangletop; [11]): 0 (Herbicidal rate of 5% or less (almost no effect)); Herbicidal effect on H (barnyard grass), foliage application (barnyard grass [5]; [11]): 1 (Herbicidal rate of 5% or more and less than 20%); herbicidal effect on persian speedwell (R) (persian speedwell): 5 (Herbicidal rate of 90% or more (almost completely withered)); herbicidal effect on blackgrass (J) (blackgrass [8]): 0 (Herbicidal rate of 5% or less (almost no effect)); herbicidal effect on false cleavers (Q) (false cleavers): 0 (Herbicidal rate of 5% or less (almost no effect)); herbicidal effect on green foxtail (G) (green foxtail [10]): 0 (Herbicidal rate of 5% or less (almost no effect))
